pIC50: −log10 of the molar value.

For this test, the system named is Escherichia coli ATCC 25922. Kind of test: 50% growth inhibitory concentration (IC50) determination, Iso-Sensitest broth dilution. In kind it is cell-based. The settings on record: Escherichia coli, ATCC25922, 16 h, strain Escherichia coli ATCC 25922; 10-point broth dilution, optical density at 600 nm over 16 h; read-out: Escherichia coli growth inhibition IC50. In outline:
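10-point twofold Iso-Sensitest broth dilution (e.g. 50 to 0.097 μM final) with DMSO stocks, incubated at 35±2° C. Growth followed by OD 600 nm every 20 min over 16 h; IC50 derived from growth inhibition during logarithmic phase.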
For `O=C1COc2ccc(N3CC(CCNCCC4Cc5cccc(Cl)c5C4)OC3=O)nc2N1` (stereo not shown) [Example 20, 6-[5-[2-[2-(4-chloro-2,3-dihydro-1H-inden-2-yl)ethylamino]ethyl]-2-oxo-1,3-oxazolidin-3-yl]-4H-pyrido[3,2-b][1,4]oxazin-3-one; formic acid], the pIC50 was 6.86. For `O=C1COc2ncc(N3CC(CCNCC4Cc5nccc(F)c5C4)OC3=O)nc2N1` (stereo not shown) [Example 318, 6-[5-[2-[(4-fluoro-6,7-dihydro-5H-cyclopenta[b]pyridin-6-yl)methylamino]ethyl]-2-oxo-1,3-oxazolidin-3-yl]-4H-pyrazino [2,3-b][1,4]oxazin-3-one], the pIC50 was > 7.01. The same measure for `NC1c2cccc(Cl)c2CC1CN1CCC2(CC1)CN(c1ccc3c(n1)NC(=O)CO3)C(=O)O2` (racemic) [Example 212, 6-[2-oxo-8-[[rac-1,2-trans-1-amino-4-chloro-2,3-dihydro-1H-inden-2-yl]methyl]-1-oxa-3,8-diazaspiro[4.5]decan-3-yl]-4H-pyrido[3,2-b][1,4]oxazin-3-one]: > 7.01; for `N#Cc1nc(OCC2(N)CC2)cc2c1CC(CNCCC1CN(c3ccc4c(n3)NC(=O)CO4)C(=O)O1)C2` (stereo not shown) [Example 125]: 6.95; for `NCCOc1ncc2c(c1Cl)CC(CNCCC1CN(c3ccc4c(n3)NC(=O)CO4)C(=O)O1)C2` (stereo not shown) [Example 174, 6-[5-[2-[[3-(2-aminoethoxy)-4-chloro-6,7-dihydro-5H-cyclopenta[c]pyridin-6-yl]methylamino]ethyl]-2-oxo-1,3-oxazolidin-3-yl]-4H-pyrido[3,2-b][1,4]oxazin-3-one]: > 7.01. The same measure for `Cc1ncc(F)c2c1CC(N)(CCNCC1CN(c3ccc4c(n3)NC(=O)CO4)C(=O)O1)C2` (stereo not shown) [Example 280, 6-[5-[[2-(6-amino-4-fluoro-1-methyl-5,7-dihydrocyclopenta[c]pyridin-6-yl)ethylamino]methyl]-2-oxo-1,3-oxazolidin-3-yl]-4H-pyrido[3,2-b][1,4]oxazin-3-one]: 6.07. Consider `COc1cc2c(c(C#N)n1)CC(CNCCC1CN(c3ccc4c(n3)NC(=O)CO4)C(=O)O1)C2` (stereo not shown) [Example 53, 3-methoxy-6-[[2-[2-oxo-3-(3-oxo-4H-pyrido[3,2-b][1,4]oxazin-6-yl)-1,3-oxazolidin-5-yl]ethylamino]methyl]-6,7-dihydro-5H-cyclopenta[c]pyridine-1-carbonitrile], for which the negative-log IC50 (pIC50) is > 7.01. For the molecule `CNCCOc1nc(C)c2c(c1C)CC(CNCCC1CN(c3ccc4c(n3)NC(=O)CO4)C(=O)O1)C2` (stereo not shown) [Example 173, 6-[5-[2-[[1,4-dimethyl-3-[2-(methylamino)ethoxy]-6,7-dihydro-5H-cyclopenta[c]pyridin-6-yl]methylamino]ethyl]-2-oxo-1,3-oxazolidin-3-yl]-4H-pyrido[3,2-b][1,4]oxazin-3-one], the pIC50 was 6.71. With `O=C1COc2ccc(N3CC(CCCNCC4Cc5cccc(Cl)c5C4)OC3=O)nc2N1` (stereo not shown) [Example 2, 6-[5-[3-[(4-chloro-2,3-dihydro-1H-inden-2-yl)methylamino]propyl]-2-oxo-1,3-oxazolidin-3-yl]-4H-pyrido[3,2-b][1,4]oxazin-3-one], the negative logarithm of the IC50 (pIC50) was 6.48. As to `CC(C)(N)COc1cc(F)c2c(c1)CC(CN1CCC3(CC1)CN(c1cnc4c(n1)NC(=O)CO4)C(=O)O3)C2` (single isomer, unassigned; enantiomer a) [Example 377, 6-[8-[[6-(2-Amino-2-methylpropoxy)-4-fluoro-2,3-dihydro-1H-inden-2-yl]methyl]-2-oxo-1-oxa-3,8-diazaspiro[4.5]decan-3-yl]-4H-pyrazino[2,3-b][1,4]oxazin-3-one; formic acid, Enantiomer A], the pIC50 was > 7.01.

The values above are taken from patent publication US20230167127A1, “COMPOUNDS AND THEIR USE IN THE TREATMENT OF BACTERIAL INFECTION” (Hoffmann-La Roche Inc., priority 2020, published 2023).
